{
  "source": "paper PMC5520944",
  "about": "(Cell Death & Disease, 2017)",
  "key": {"L929sAhFas [1]": {"tested_on": "L929sAhFas", "experiment": "cells", "design": "high-content necroptosis screen, percentage PI-positive nuclei as percent of DMSO plus stimulus control", "source_text": "To identify novel inhibitors or regulators of necroptosis, 500 small compounds from libraries targeting autophagy, kinases, phosphatases, proteases and redox balance were screened for their ability to block TNF-induced necroptosis in murine L929sAhFas cells. Three conditions were used to induce necroptosis in L929 cells: TNF alone, TNF+TAK1 inhibitor (TAK1i) and TNF+zVAD-fmk, a pan-caspase inhibitor. Inhibition of TAK1 or caspases sensitizes to necroptosis.[13], [32] Necroptosis, measured as the percentage of PI-positive nuclei normalized to the plate-specific DMSO control, was determined for each compound (Supplementary Figure 1A). […] After compound treatment, L929sAhFas (a) or L929 (b) cells were stimulated with mTNF (T), mTNF+Tak1i (TiT) or mTNF+zVAD (zVT) (Supplementary Figure 1A and B). (a) Cell death percentage (% PI-positive nuclei) or cell loss was calculated as percent of control (DMSO+stimulus). […] (b) Cell loss (luminescence-based readout for ATP) was calculated as percent of control (DMSO+stimulus). […] In stimulated conditions, % PI-positive nuclei was determined as % of DMSO control. Data represent mean values±S.E.M. of two independent experiments. Cells were stained with Hoechst and PI and percentage PI-positive nuclei was determined using high-content image analysis (BD pathway Bioimager). (d) L929sAhFas cells were treated with Sorafenib (concentration as indicated) for 24 h. Then, stimulus was removed, 50 cells/condition seeded and colonies counted with crystal violet staining after 10 days incubation. […] Schemes of workflow screening assays in L929 cell lines. (A) Scheme of the workflow of a high-content screening assay on L929sAhFas cells using mTNF (T) and mTNF+Tak1i ((5Z)-7-Oxozeaenol) (TiT) to induce necroptotic cell death. Nec-1 and zVAD-fmk were used as protective and sensitizing benchmarks, respectively, on all plates. (B) Scheme of the workflow of a CellTiter-Glo luminescent cell viability screening assay on L929 cells using mTNF+zVAD (zVT) to induce necroptotic cell death. Supplementary Figure S2. Z’ calculation for cell death screening assays in L929 cells. (A) Z’ calculation for cell death screening assay (Fig. 1A) in mTNF-stimulated L929sAhFas cells. (B) Z’ calculation for cell death screening assay (Fig. 1A) in L929sAhFas cells stimulated with mTNF + Taki."}, "L929sAhFas [2]": {"tested_on": "L929sAhFas", "experiment": "cells", "design": "high-content necroptosis screen, percentage PI-positive nuclei as percent of DMSO plus stimulus control", "conditions": "mTNF-induced cell death, validation screen; read-out: Validation screen IC50 (µM) (TNF)", "source_text": "To identify novel inhibitors or regulators of necroptosis, 500 small compounds from libraries targeting autophagy, kinases, phosphatases, proteases and redox balance were screened for their ability to block TNF-induced necroptosis in murine L929sAhFas cells. Three conditions were used to induce necroptosis in L929 cells: TNF alone, TNF+TAK1 inhibitor (TAK1i) and TNF+zVAD-fmk, a pan-caspase inhibitor. Inhibition of TAK1 or caspases sensitizes to necroptosis.[13], [32] Necroptosis, measured as the percentage of PI-positive nuclei normalized to the plate-specific DMSO control, was determined for each compound (Supplementary Figure 1A). Z’ values for the TNF- and TNF+TAK1i-induced cell death assay were 0.498 and 0.919, respectively (Supplementary Figures 2A and B), indicating good assay performance. Sorafenib was identified as an effective inhibitor of both TNF- and TNF+TAK1i-induced necroptosis (Figure 1a). […] In an independent screening with 437 FDA-approved drugs and TNF+zVAD-fmk as necroptosis trigger in L929 cells (Supplementary Figure 1B), Sorafenib was also shown to be a potent inhibitor (Figure 1b). […] After compound treatment, L929sAhFas (a) or L929 (b) cells were stimulated with mTNF (T), mTNF+Tak1i (TiT) or mTNF+zVAD (zVT) (Supplementary Figure 1A and B). (a) Cell death percentage (% PI-positive nuclei) or cell loss was calculated as percent of control (DMSO+stimulus). Green points marked by the green dotted line represent a selection of kinase inhibitors from the screening on L929sAhFas cells (Supplementary Table 1), that are only slightly protective in the TNF-stimulated condition. (b) Cell loss (luminescence-based readout for ATP) was calculated as percent of control (DMSO+stimulus). […] In stimulated conditions, % PI-positive nuclei was determined as % of DMSO control. Data represent mean values±S.E.M. of two independent experiments. Cells were stained with Hoechst and PI and percentage PI-positive nuclei was determined using high-content image analysis (BD pathway Bioimager). (d) L929sAhFas cells were treated with Sorafenib (concentration as indicated) for 24 h. Then, stimulus was removed, 50 cells/condition seeded and colonies counted with crystal violet staining after 10 days incubation. Quantification was performed using ImageJ. n=2, a representative experiment is shown Legends supplementary figures Supplementary Figure S1. Schemes of workflow screening assays in L929 cell lines. (A) Scheme of the workflow of a high-content screening assay on L929sAhFas cells using mTNF (T) and mTNF+Tak1i ((5Z)-7-Oxozeaenol) (TiT) to induce necroptotic cell death. Nec-1 and zVAD-fmk were used as protective and sensitizing benchmarks, respectively, on all plates. (B) Scheme of the workflow of a CellTiter-Glo luminescent cell viability screening assay on L929 cells using mTNF+zVAD (zVT) to induce necroptotic cell death. Supplementary Figure S2. Z’ calculation for cell death screening assays in L929 cells. (A) Z’ calculation for cell death screening assay (Fig. 1A) in mTNF-stimulated L929sAhFas cells. (B) Z’ calculation for cell death screening assay (Fig. 1A) in L929sAhFas cells stimulated with mTNF + Taki."}, "[3]": {"conditions": "read-out: cell death TNF/Taki (POC)"}},
  "note": "Like-named read-outs stand apart in the source and are kept apart here.",
  "data": [
    {"smiles": "COc1cc2ncc(-c3ccccc3)nc2cc1OC", "note": "[AG-1296]", "values": [
      {"measurement": "activity at 10 µM", "setting": "L929sAhFas [1]; read-out: cell death TNF (POC)", "result": 77.6, "unit": "%"},
      {"measurement": "activity at 10 µM", "setting": "L929sAhFas [1]; [3]", "result": 93.6, "unit": "%"},
      {"measurement": "IC50", "setting": "L929sAhFas [2]", "result": 33.2, "unit": "µM"}
    ]},
    {"smiles": "CN(C)c1ccc(/C=C2\\C(=O)Nc3ccccc32)cc1", "note": "[SU 4312]", "values": [
      {"measurement": "activity at 10 µM", "setting": "L929sAhFas [1]; read-out: cell death TNF (POC)", "result": 69.6, "unit": "%"},
      {"measurement": "activity at 10 µM", "setting": "L929sAhFas [1]; [3]", "result": 96.8, "unit": "%"},
      {"measurement": "IC50", "setting": "L929sAhFas [2]", "result": 26.4, "unit": "µM"}
    ]},
    {"smiles": "CC(C)(C)c1cc(C=C(C#N)C#N)cc(C(C)(C)C)c1O", "note": "[TYRPHOSTIN 9]", "values": [
      {"measurement": "activity at 10 µM", "setting": "L929sAhFas [1]; read-out: cell death TNF (POC)", "result": 41.8, "unit": "%"},
      {"measurement": "activity at 10 µM", "setting": "L929sAhFas [1]; [3]", "result": 95.8, "unit": "%"},
      {"measurement": "IC50", "setting": "L929sAhFas [2]", "result": 4.45, "unit": "µM"}
    ]},
    {"smiles": "N#C/C(=C\\c1ccc(O)c(O)c1)C(=O)Nc1ccccc1", "note": "[AG-494]", "values": [
      {"measurement": "activity at 10 µM", "setting": "L929sAhFas [1]; read-out: cell death TNF (POC)", "result": 58.6, "unit": "%"},
      {"measurement": "activity at 10 µM", "setting": "L929sAhFas [1]; [3]", "result": 95.8, "unit": "%"},
      {"measurement": "IC50", "setting": "L929sAhFas [2]", "result": 32.3, "unit": "µM"}
    ]},
    {"smiles": "N#C/C(=C\\c1ccc(O)c(O)c1)C(=O)NCc1ccccc1", "note": "[AG-490]", "values": [
      {"measurement": "activity at 10 µM", "setting": "L929sAhFas [1]; read-out: cell death TNF (POC)", "result": 74.2, "unit": "%"},
      {"measurement": "activity at 10 µM", "setting": "L929sAhFas [1]; [3]", "result": 97.3, "unit": "%"},
      {"measurement": "IC50", "setting": "L929sAhFas [2]", "result": 87.3, "unit": "µM"}
    ]}
  ]
}
